pIC50: −log10 of the molar value. Strand notation (5' to 3'): a small letter for the sugar, then the base; units joined by * are phosphorothioate-linked, units joined directly phosphodiester-linked; [ ] holds rarer units or linkages, { } end groups; capitals alone tell only the bases. k = constrained ethyl (cEt); [5mC] = 5-methylcytosine; d = 2'-deoxy (DNA)
What was measured:
human SMAD7 mRNA [1] = assay: Antisense inhibition of human SMAD7 mRNA expression in Hep3B cells by 3-10-3 cEt gapmers, 10,000 nM, electroporation (Example 2); format: cell-based; settings: approximately 24 hours
In short: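 SMAD7 mRNA was measured by real-time PCR (RTS5062) with RiboGreen total-RNA normalization, about 24 h after 10,000 nM gapmer was delivered by electroporation into Hep3B cells at 20,000 per well. Gapmers were 16-mer 3-10-3 cEt, fully phosphorothioate; values are % inhibition versus untreated controls.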

human SMAD7 mRNA [2] = assay: Dose-dependent inhibition of human SMAD7 mRNA expression in Hep3B cells (Example 3, Study 1 and 2); format: cell-based; settings: electroporation; for % inhibition of SMAD7 mRNA expression: approximately 16 hours; for pIC50: Study 2 (740-20000 nM)
In short: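 Hep3B cells, 20,000 per well, electroporated with antisense oligonucleotide at 0.31, 1.25, 5.00 or 20.00 μM (first series) or 0.74, 2.22, 6.67 or 20.00 μM (second series). After ~16 h, SMAD7 mRNA measured by RT-qPCR (RTS5062), normalised to RIBOGREEN total RNA. Percent inhibition vs untreated cells; IC50 derived.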

[3] = Hep3B cells, electroporation with 10,000 nM antisense oligonucleotide, SMAD7 mRNA by RT-PCR (RTS5062), relative to untreated control cells
[4] = 740 nM, Study 2, relative to untreated control cells
[5] = Hep3B cells, electroporation, 10,000 nM antisense oligonucleotide, RTS5062, relative to untreated control cells
[6] = Hep3B cells, electroporation with 10,000 nM antisense oligonucleotide, primer probe set RTS5062, relative to untreated control cells

| Substance | % Inhibition (human SMAD7 mRNA [1]; [3]) | % inhibition of SMAD7 mRNA expression (human SMAD7 mRNA [2]; [4]) | % inhibition of SMAD7 mRNA expression (human SMAD7 mRNA [2]; 2220 nM, Study 2) | % inhibition of SMAD7 mRNA expression (human SMAD7 mRNA [2]; 6670.0 nM, Study 2) | % inhibition of SMAD7 mRNA expression (human SMAD7 mRNA [2]; 20000.0 nM, Study 2) | pIC50 (human SMAD7 mRNA [2]) | % inhibition of SMAD7 mRNA expression (human SMAD7 mRNA [1]; [5]) | % inhibition of SMAD7 mRNA expression (human SMAD7 mRNA [1]; [6]) | % Inhibition (human SMAD7 mRNA [1]; Hep3B cells, electroporation with 10,000 nM antisense oligonucleotide, RTS5062, percent inhibition of SMAD7 mRNA relative to untreated control cells) | % Inhibition (human SMAD7 mRNA [1]; Hep3B cells, 10,000 nM antisense oligonucleotide, electroporation, RT-PCR primer probe set RTS5062, relative to untreated control cells) | % Inhibition (human SMAD7 mRNA [1]; SMAD7 mRNA, Hep3B cells, 10,000 nM antisense oligonucleotide, electroporation, primer probe set RTS5062, relative to untreated control cells) |
| --- | --- | --- | --- | --- | --- | --- | --- | --- | --- | --- | --- |
| 790476 (kT*kT*k[5mC]*dT*dT*dG*dA*dG*d[5mC]*dA*d[5mC]*d[5mC]*dG*kA*kG*kT; antisense) [compound 790476] | 67% | 8% | 38% | 63% | 69% | 5.30 | – | – | – | – | – |
| 799791 (kG*kG*kG*dA*dG*dA*d[5mC]*d[5mC]*dT*dA*d[5mC]*d[5mC]*dT*k[5mC]*kT*kG; antisense) [compound 799791] | – | 11% | 4% | 29% | 60% | 5.22 | 56% | – | – | – | – |
| 772560 (antisense kT*kT*kG*d[5mC]*dA*d[5mC]*dA*dG*d[5mC]*dA*dG*dG*dA*kG*kG*kG) [compound 772560] | – | 0% | 32% | 57% | 82% | 5.30 | – | 66% | – | – | – |
| 830131 (antisense k[5mC]*k[5mC]*k[5mC]*dA*d[5mC]*d[5mC]*dT*d[5mC]*d[5mC]*dG*dA*dG*dG*k[5mC]*kA*k[5mC]) [compound 830131] | 68% | 34% | 48% | 51% | 61% | 5.30 | – | – | – | – | – |
| 799711 (antisense kG*kG*kT*d[5mC]*dA*dA*dA*d[5mC]*dT*dT*dG*dT*dG*kG*kT*kA) [compound 799711] | – | 36% | 47% | 51% | 54% | 5.30 | – | – | 60% | – | – |
| 799496 (antisense kG*kG*kG*dT*dG*dA*dG*dG*dT*dG*dG*d[5mC]*dT*kG*k[5mC]*kG) [compound 799496] | – | 3% | 12% | 34% | 69% | 5.52 | – | 72% | – | – | – |
| 799322 (antisense kG*kG*kA*dG*dG*dG*dT*dA*dT*dG*d[5mC]*dA*d[5mC]*kA*k[5mC]*kT) [compound 799322] | – | 89% | 90% | 96% | 96% | 5.70 | – | 83% | – | – | – |
| 799753 (antisense k[5mC]*kG*kT*dG*dA*dG*dT*dA*dA*dA*dT*dT*d[5mC]*kT*kT*kA) [compound 799753] | – | 0% | 33% | 32% | 66% | 5.40 | 69% | – | – | – | – |
| 798686 (antisense kG*kA*kG*dG*dA*dG*dG*d[5mC]*dG*dA*dG*dG*dA*kG*kA*kA) [compound 798686] | – | 0% | 0% | 2% | 33% | 5.30 | – | 59% | – | – | – |
| 799878 (kG*k[5mC]*k[5mC]*d[5mC]*d[5mC]*d[5mC]*d[5mC]*dT*d[5mC]*d[5mC]*d[5mC]*d[5mC]*dG*kT*kG*k[5mC]; antisense) [compound 799878] | – | 35% | 64% | 68% | 84% | 4.77 | – | – | – | 70% | – |
| 790488 (kT*kT*k[5mC]*d[5mC]*dG*dA*dG*dG*dA*dA*dT*dG*d[5mC]*k[5mC]*kT*kG; antisense) [compound 790488] | – | 12% | 34% | 46% | 67% | 5.15 | – | – | – | – | 81% |

From US10517889B2, “Modulators of SMAD7 expression” (Ionis Pharmaceuticals, Inc., priority 2017, dated 2019)
